Laboratory results published in patent US20060128699A1, “Novel pharmacophore for the discovery and testing of na,k-atpase inhibitor compositions and methods for their use in treating cardiovascular diseases and conditions” (priority 2002, published 2006).
Values joined by “and” are separate entries in the source; they are usually repeats but may differ in a detail not shown here. Equal values may be shown once.

Columns and labels:
[1] = target: T1, Na, K-ATPase (Ovis aries, UniProt P04074); test: NKA assay started by addition of ATP; type: biochemical, lamb; settings: for ratio (digoxin) / IC50: assay started by addition of ATP; for ratio (digoxin): IC50_aver. relative to digoxin
T1 construct: Na, K-ATPase will be purified from the outer medulla of frozen lamb kidney; from tissue; host or cells: outer medulla of frozen lamb kidney

[2] = target: T1, Na, K-ATPase; test: NKA assay started by addition of KCl; type: biochemical, lamb; settings: for ratio (digoxin): IC50_aver. relative to digoxin
[3] = target: sheep 1α-subunit of the Na, K-ATPase, Q111R and N122D mutant (Ovis aries, UniProt P04074, N127D/Q116R); settings: Q111R and N122D versus wild-type sheep catalytic subunit; cited from earlier work
[4] = target: sheep 1α-subunit of the Na, K-ATPase, D121N mutant (Ovis aries, UniProt P04074, D126N); settings: D121N versus wild-type sheep; cited from earlier work
[5] = target: rat 1α-subunit of the Na, K-ATPase (Rattus norvegicus, UniProt P06685); settings: cited from earlier work
[6] = target: human 1α-subunit of the Na, K-ATPase (Homo sapiens, UniProt P05023); settings: cited from earlier work
[7] = determination 1, read-out: IC50_1
[8] = determination 2, read-out: IC50_2
[9] = determination 3, read-out: IC50_3
[10] = assay started by addition of KCl
[11] = assay started by addition of KCl, average, read-out: IC50_aver.
[12] = assay started by addition of KCl, determination 1, read-out: IC50_1
[13] = assay started by addition of KCl, determination 2, read-out: IC50_2

Row | IC50 ([1]; average, read-out: IC50_aver.) | IC50 [1, 8] | Compound | ratio (digoxin) [1] | IC50 [1, 7] | IC50 [1, 9] | ratio (digoxin) [2, 10] | ATPase inhibition (in words) [1] | further results
1 | 203 µM | 102 µM | COc1cccc2c1Sc1ccccc1C(=O)C2 [Compound 27] | 497 | 386 µM | 120 µM |  |  | 
2 | 270 µM | 253 µM | Oc1cc(O)c2c(c1)O[C@H](c1ccc(O)c(O)c1)[C@@H](O)C2 [Compound 9, (+)-Catechin Hydrate] | 664 | 287 µM |  |  |  | 
3 |  |  | C[C@@H]1O[C@@H](O[C@H]2C[C@@H](O)[C@]3(CO)[C@H]4[C@H](O)C[C@]5(C)[C@@H](C6=CC(=O)OC6)CC[C@]5(O)[C@@H]4CC[C@]3(O)C2)[C@H](O)[C@H](O)[C@H]1O [ouabain] |  |  |  |  |  | less sensitive to ouabain than wild-type [3]: 1150 fold; decrease in sensitivity to ouabain [4]: 1000 fold; sensitivity to ouabain inhibition (in words) ([5]; rat subunit): insensitive; loss in ouabain inhibition ([5]; rat α1-subunit): ~1000 fold; sensitivity to ouabain (in words) [6]: sensitive
4 | 359 µM and 38.1 µM | 42.5 µM | COc1cc2c(c(OC)c1)Sc1ccccc1C(=O)C2 [Compound 28] |  |  | 36.3 µM | 6764 | strong ATPase inhibition | IC50 [2, 11]: 67.6 µM; IC50 [2, 12]: 75.6 µM; IC50 [2, 13]: 59.7 µM; IC50 ([1]; determination 4, read-out: IC50_4): 145 µM
5 | 70.6 µM | 76.8 µM | CC(CCc1ccc(O)cc1)NCCc1ccc(O)c(O)c1 (stereo not shown) [Compound 25, R—S Dobutamine] | 173 | 64.4 µM |  |  |  | 

Row | Compound | IC50 ([1]; average, read-out: IC50_aver.) | IC50 [1, 8] | ratio (digoxin) [1] | IC50 [1, 7] | IC50 [1, 9] | ratio (digoxin) [2, 10] | ATPase inhibition (in words) [1] | further results
6 | O=C1C=CC2C(=C1[N+](=O)[O-])Oc1c(ccc(O)c1[N+](=O)[O-])C2c1ccccc1C(=O)O (stereo not shown) [Compound 14, 4′-5′ Di nitroflorescein] | 8.75 µM | 8.87 µM | 21.5 | 5.69 µM | 11.7 µM | 869 | strong ATPase inhibition | IC50 ([2]; IC50_1, assay started by addition of KCl, determination 1): 7.81 µM; IC50 ([2]; IC50_2, assay started by addition of KCl, determination 2): 9.53 µM; IC50 ([2]; IC50_aver., assay started by addition of KCl, average): 8.69 µM
7 | Cc1cc(O)c2c(c1)C(=O)c1cc(O)cc(O)c1C2=O [Compound 15, Emodin] | 89.8 µM | 75.5 µM | 220 | 32.2 µM | 162 µM |  |  | 
8 | Lacmoid [Compound 19] | 13.4 µM | 192 µM | 32.9 | 11.2 µM | 9.7 µM | 340 | strong ATPase inhibition | IC50 [2, 11]: 3.4 µM; IC50 [2, 12]: 3.55 µM; IC50 [2, 13]: 3.25 µM
